We go through twelve compounds from patent US5612356A, “Heterocycle-containing carbonic acid derivatives” (Eisai Co., Ltd., priority 1992, dated 1997).

The target of experiment [1] is T1, retinoic acid receptor (RAR) (Homo sapiens, UniProt P10276).
T1 construct: by the use of an extract from HL 60 cell nuclei; endogenous in cells; host or cells: HL60 human promyelocytic leukemia cells, 0.8 M KCl nuclear extract
T1 sequence (P10276 1-462): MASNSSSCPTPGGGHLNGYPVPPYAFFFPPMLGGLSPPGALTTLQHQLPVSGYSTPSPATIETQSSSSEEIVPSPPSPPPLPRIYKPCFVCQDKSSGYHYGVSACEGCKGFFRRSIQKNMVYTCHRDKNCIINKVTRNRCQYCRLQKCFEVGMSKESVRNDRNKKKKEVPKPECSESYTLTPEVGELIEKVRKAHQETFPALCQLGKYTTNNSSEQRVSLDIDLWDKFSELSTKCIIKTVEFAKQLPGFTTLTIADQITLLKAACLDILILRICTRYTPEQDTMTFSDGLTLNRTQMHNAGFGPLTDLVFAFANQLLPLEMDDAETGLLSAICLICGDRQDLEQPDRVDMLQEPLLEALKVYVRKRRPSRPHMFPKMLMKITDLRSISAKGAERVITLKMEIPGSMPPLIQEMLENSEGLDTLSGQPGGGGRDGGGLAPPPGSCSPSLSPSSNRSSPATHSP
Briefly: Receptor binding assay using human promyelocytic leukemia cell HL60 (nuclear extract), inhibition of 3H-all-trans retinoic acid binding to RAR. The following applies: HL60 cell nucleus extract, 4° C., 16 hours. Here is the method:
Receptor binding assay using human promyelocytic leukemia cell, HL60
It has been known that a receptor for all-trans retinoic acid [i.e., retinoic acid receptor (RAR)] is present in the nucleus of HL 60 cell (see Clara Nervi et al., Proc. Natl. Acad. Sci. USA, 86, 5854 (1989)). Therefore, the extent of specific binding of all-trans retionic acid to RAR was determined by the use of an extract from HL 60 cell nuclei; and the ability of each compound to bind to RAR was determined based on the inhibitory activity of the compound against the above specific binding.
The above cell nucleus extract was prepared as follows.
HL 60 cells (5×10^8) were suspended in 15 ml of a solution A [comprising 5 mM of sodium phosphate (pH: 7.4), 10 mM of monothioglycerol,10% (v/v) of glycerol, 1 mM of phenylmethylsulfonyl fluoride (PMSF), 10 μg/ml of aprotinin and 25 μg/ml of leupeptin). The obtained suspension was homogenized with a homogenizer and centrifuged to remove a formed supernatant. The obtained sediment was suspended in 15 ml of a solution B [comprising 10 mM of Tris-HCl (pH: 8.5), 10 mM of monothioglycerol, 10% (v/v) of glycerol, 1 mM of PMSF, 10 μg/ml of aprotinin, 25 μg/ml of leupeptin and 0.8 M of KC1]. The obtained suspension was allowed to stand at 4° C. for one hour and ultracentrifuged (under the conditions of 100,000×g and 4° C. for one hour). The supernatant thus obtained was stored in a state freezed at -80° C. and used as the cell nucleus extract [see Methods in Enzymology, 189: 248).
The receptor binding assay was conducted as follows.
180 μl of the above extract and 10 μl of a dilution of all-trans retionic acid or a compound to be tested were put in each well of a 96-well polypropylene plate, followed by the addition thereto of ^3 H-all-trans retionic acid in an amount of 10 μl/well. The plate was allowed to stand at 4° C. for 16 hours. A solution containing 3% of charcoal and 0.3% of dextran was added to the reaction mixture in the well and the obtained mixture was centrifuged to remove free ^3 H-all-trans retionic acid. The intensity of radiation of the supernatant was determined with a scintillation counter. The extent of specific binding of all-trans retinoic acid to RAR was determined by taking the intensity of radiation, observed when 200-fold excess of all-trans retinoic acid was added, as that of a nonspecific binding, and substracting the intensity of radiation thus taken from that of the one determined above.

Experiment [2] concerns HL60 cell. Briefly: Antagonism against all-trans retinoic acid in inducing the differentiation of HL60 cell (CD11b-positive cells, flow cytometry). It is filed as cell-based. The following applies: Homo sapiens, HL-60, 120 h, all-trans retinoic acid 30 nM, 5 days. From the text: Antagonism against all-trans retinoic acid in inducing the differentiation of HL60 cell
It has been known that a human promyelocytic leukemia cell strain HL60 is differentiated into granulocytic cells in the presence of all-trans retinoic acid (see Breitman, T., Selonick, S., and Collins, S., Proc. Natl. Acad. Sci. USA, 77, 2936(1980)). Generally, a cell forms a specific differentiation antigen on its surface, when it has achieved differentiation. When an HL60 cell is differentiated into a granulocytic cell, CD11b which is an antigen discriminating granulocyte or monocute is formed on the surface of the cell (see Fontana, J. A., Reppuci, A., Durham, J. P., and Mirand, D., Cancer Res. 46, 2469 to 2473 (1986)). The antagonism against the differentiation of HL60 into granulocytic cell which is induced by all-trans retionic acid was studied by utilizing the above phenomenon.
HL60 cells were cultured and maintained in a culture medium prepared by adding 10% of inactivated bovine fetus serum, 1 mM of sodium pyruvate, 50 μM of β-mercaptoethanol, 100 I.U./ml of penicillin and 100 μg/ml of streptomycin to RPMI1640 (a culture medium formulated in Rosewell Park Memorial Institute).
The resulting plate was incubated in an incubator (5% CO2 /air) for 5 days. After the incubation, the cells of each well were recovered into a test tube, followed by the addition thereto of an FITC-labeled monoclonal antibody reactive with CD11b which is an antigen specific to granulocyte or monocute. The resulting cells were immobilized with 0.2% paraformaldehyde. The immobilized cell suspension was examined by flow cytometry for the proportion of CD11b-positive cells in the above HL60 cell group in each well (see Miller, L. J., Schwarting, R., and Springer, T. A., J. Immunol. 137, 2891 to 2900 (1986)).

Bounds are passed on as bounds.

For the compound `CCCCCn1cc(-c2ccc(C(=O)O)cc2)c2c1-c1cc3c(cc1CC2)C(C)(C)CCC3(C)C` [Example 22], the figures for the IC50 in experiment [1] and in experiment [2] were 32 nM and 14000 nM, respectively.
For `CC1(C)CCC(C)(C)c2cc3c(cc21)CCc1c(-c2ccc(C(=O)O)cc2)cn(Cc2cccnc2)c1-3` [Example 16, 4-[4,5,7,8,9,10-Hexahydro-7,7,10,10-tetramethyl-1(3-pyridylmethyl)anthra[1,2-b]pyrrol-3-yl]benzoic acid], the IC50 was below 0.5 nM in experiment [1] and 120 nM in experiment [2].
For `CCCCCCCOc1cc2c(cc1/C(C)=C/c1ccc(C(=O)O)cc1)C(C)(C)CCS2(=O)=O` [Example R041-5253, reference compound], in that order: 9 nM and 7200 nM.
For the compound `CC1(C)CCC(C)(C)c2cc3c(cc21)CCc1c(-c2ccc(C(=O)O)cc2)cn(-c2cccnc2)c1-3` [Example 19], the results for the IC50 in experiment [1] and in experiment [2] were 0.5 nM and 480 nM, respectively.
For `CC1(C)CCC(C)(C)c2cc3c(cc21)CCc1c(-c2ccc(C(=O)O)cc2)coc1-3` [Example 106, 4-(4,5,7,8,9,10-Hexahydro-7,7,10,10-tetramethylanthra-[1,2-b]furan-3-yl)benzoic acid], in that order: 26 nM and 3800 nM.
For `Cn1nc(-c2ccc(C(=O)O)cc2)c2ccc3cc4c(cc3c21)C(C)(C)CCC4(C)C` [Example 14, 4-(7,8,9,10-Tetrahydro-1,7,7,10,10-pentamethylanthra-[2,1-d]pyrazol-3-yl)benzoic acid], in that order: 50 nM and 2200 nM.
Turning to `CC1(C)CCC(C)(C)c2cc3c(cc21)CCc1c(-c2ccc(C(=O)O)cc2)nn(Cc2ccccc2)c1-3` [Example 4], the IC50 was below 0.5 nM in experiment [1] and 1000 nM in experiment [2].
For `Cn1nc(-c2ccc(C(=O)O)cc2)c2c1-c1cc3c(cc1SC2)C(C)(C)CCC3(C)C` [Example 11], in that order: 9 nM and 1200 nM.
For `CCn1nc(-c2ccc(C(=O)O)cc2)c2c1-c1cc3c(cc1CC2)C(C)(C)CCC3(C)C` [Example 1, 4-(1-Ethyl-4,5,7,8,9,10-hexahydro-7,7,10,10-tetramethylanthra[2,1-d]pyrazol-3yl)benzoic acid], in that order: 4 nM and 700 nM.
For `CC1(C)CCC(C)(C)c2cc3c(cc21)CCc1c(-c2ccc(C(=O)O)cc2)cn(-c2ccccc2)c1-3` [Example 18], in that order: 4.2 nM and 2700 nM.
Take `CC(C)n1nc(-c2ccc(C(=O)O)cc2)c2c1-c1cc3c(cc1CC2)C(C)(C)CCC3(C)C` [Example 2]: the IC50 in experiment [1] was 50 nM; in experiment [2], 6700 nM.
The like results for `Cn1nc(-c2ccc(C(=O)O)cc2)c2c1-c1cc3c(cc1CC2)C(C)(C)CCC3(C)C` [Example 7, 4-(4,5,7,8,9,10-Hexahydro-1,7,7,10,10-pentamethylanthra[2,1-d]pyrazol-3-yl)benzoic acid] were, in that order, 22 nM and 560 nM.
